Reference: patent US10196556B2, “Surfactant composition” (RHODIA OPERATIONS, priority 2012, dated 2019)
Like-named read-outs stand apart in the source and are kept apart here.

Assay: Static foam test (Waring blender), foam persistence
Type: physicochemical
Details: for Foam Volume: ambient temperature; for Foam Quality (%): from flash foam volume and 200 ml solution volume
Method: In order to perform static foam testing, 10% aqueous stock solutions of the surfactant compositions were prepared in distilled water. These were added to 10% w/w aqueous sodium chloride solution, such that the concentration of the surfactant in the brine was 1000 ppm.
Surfactant compositions according to the invention were benchmarked against the individual surfactants. A Waring type blender was used.
The flash foam volumes were measured by taking 200 ml of a surfactant composition according to the invention, subjecting it to high shear for 30 seconds at ambient temperature (20° C.) and then transferring the foam immediately to a measuring cylinder (1000 ml) for measurement. This initial volume was the flash volume. The foam and liquid volume was monitored for a further 10 minutes.
The ‘half-life’ of the foam was defined as the time taken for 100 ml of fluid to drain from the foam. Without being bound by theory, an increase in the half-life corresponds to a reduction in the liquid drainage rate and reflects the texture of the foam. Denser foams, as a rule, tend to take longer to drain and therefore are more persistent.
Static foam tests are a rapid and relatively straightforward method to screen the foam performance of surfactants. The method provides information on the stability and quality, i.e. texture (structure), of the foam produced in a Waring blender. The mechanical properties of the foam lamellae and foam structure are determined to some extent by the packing of the surfactant molecules at the gas/liquid interface. The foam structure influences liquid drainage rates and therefore, the persistence or stability of the foam.
Surfactant solutions (200 ml) were subjected to high shear for 30 seconds at ambient temperatures and the foam transferred immediately to a measuring cylinder (1000 ml). The foam and liquid volume was monitored for a further 10 minutes. 10% active aqueous stock solutions of the surfactants were prepared in distilled water and these were added to 10% w/w aqueous sodium chloride solution. The concentration of the surfactant in the brine was 1000 ppm.
The initial foam volume is also called the ‘flash’ foam.

[1] = 0 s (flash foam), 1000 ppm surfactant in 10% w/w NaCl
[2] = 120 s, 1000 ppm surfactant in 10% w/w NaCl
[3] = 240 s, 1000 ppm surfactant in 10% w/w NaCl
[4] = 360 s, 1000 ppm surfactant in 10% w/w NaCl
[5] = 480 s, 1000 ppm surfactant in 10% w/w NaCl
[6] = 600 s, 1000 ppm surfactant in 10% w/w NaCl
[7] = 1000 ppm surfactant in 10% w/w NaCl
[8] = time for 100 ml of fluid to drain from the foam, 1000 ppm surfactant in 10% w/w NaCl

Substance	Half-life [s]	Foam Volume [1] [mL]	Foam Volume [2] [mL]	Foam Volume [3] [mL]	Foam Volume [4] [mL]	Foam Volume [5] [mL]	Foam Volume [6] [mL]	Foam Quality (%) [7] [%]	Half-life [8] [s]
Sodium hydroxypropyl sulfonate lauryl glucose crosspolymer [PolySugaNate 160P]	24								
Lauramidopropyl betaine [Mackam LMB]		670	524	486	430	360	350	70.1	270
Lauramidopropyl hydroxysultaine [Mackam LSB-50]		600	406	350	280	240	210	66.7	192
